Laboratory results from US20230126361A1, “METHODS OF CONTROLLING OR PREVENTING INFESTATION OF PLANTS BY THE PHYTOPATHOGENIC MICROORGANISM CORYNESPORA CASSIICOLA, […] AND/OR […]” (SYNGENTA CROP PROTECTION AG, priority 2020, published 2023).

Legend:
Assay type in all cases: cell-based
Conditions in all cases: PDB, 24° C., 3-4 days, 620 nm
Corynespora cassiicola = Corynespora cassiicola (target leaf spot) liquid culture growth inhibition
Method: Conidia of the fungus from cryogenic storage were directly mixed into nutrient broth (PDB potato dextrose broth). A DMSO solution of the test compounds was placed into a microtiter plate (96-well format) and the nutrient broth containing the fungal spores was added to it. The test plates were incubated at 24° C. and the inhibition of growth (% control of Corynespora cassiicola) was determined photometrically after 3-4 days at 620 nm. The activity of a compound is derived by comparing the inhibition of growth in the treated test solution to the growth in the untreated check. […]

Cercospora sojina = Cercospora sojina (frogeye leaf spot) liquid culture growth inhibition
Method: (§1) Conidia of the fungus from cryogenic storage were directly mixed into nutrient broth (PDB potato dextrose broth). A DMSO solution of the test compounds was placed into a microtiter plate (96-well format) and the nutrient broth containing the fungal spores was added to it. The test plates were incubated at 24° C. and the inhibition of growth was determined photometrically after 3-4 days at 620 nm.

Cercospora kikuchii = Cercospora kikuchii (leaf blight) liquid culture growth inhibition
Method: as §1

Cc1nc2c(F)c(F)ccc2cc1Oc1cccc(F)c1C(C)(C)O [2-[2-(7,8-difluoro-2-methylquinolin-3-yloxy)-6-fluorophenyl]propan-2-ol]
% control of Corynespora cassiicola (Corynespora cassiicola; 0.027 ppm): at least 20%
% control of Corynespora cassiicola (Corynespora cassiicola; 0.25 ppm): at least 20%
% control of Corynespora cassiicola (Corynespora cassiicola; 0.74 ppm): at least 50%
% control of Corynespora cassiicola (Corynespora cassiicola; 2.2 ppm): at least 70%
% control of Corynespora cassiicola (Corynespora cassiicola; 6.7 ppm): at least 90%
% control of Cercospora sojina (Cercospora sojina; 0.25 ppm): at least 20%
% control of Cercospora sojina (Cercospora sojina; 0.74 ppm): at least 20%
% control of Cercospora sojina (Cercospora sojina; 2.2 ppm): at least 50%
% control of Cercospora sojina (Cercospora sojina; 6.7 ppm): at least 50%
% control (Example 3: Cercospora kikuchii) (Cercospora kikuchii; 0.74 ppm): at least 20%
% control of Cercospora kikuchii (Cercospora kikuchii; 2.2 ppm): at least 50%
% control of Cercospora kikuchii (Cercospora kikuchii; 6.7 ppm): at least 50%
